According to ChEMBL document CHEMBL1201862, “PubChem BioAssay data set” (2004):
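Step 1: Grow cells in 96-well plates. Step 2: Expose to compound for 48 hours at 5 concentrations. Step 3: Interpolate endpoints linearly; if unreached, use highest concentration. The concentration for 50% growth inhibition is given as GI50.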 The source made the active and inactive calls. No stated cut-off is given here; in the data, active = GI50 up to about 1.1 µM and inactive = higher.

Columns and labels:
Assay in all cases: NCI-60 cell line screen, 48 h
CCRF-CEM = tested on: CCRF-CEM
COLO 205 = tested on: COLO 205
HOP-62 = tested on: HOP-62
MOLT-4 = tested on: MOLT-4
NCI-H226 = tested on: NCI-H226
NCI-H23 = tested on: NCI-H23
NCI-H460 = tested on: NCI-H460
OVCAR-3 = tested on: OVCAR-3
OVCAR-5 = tested on: OVCAR-5
RPMI-8226 = tested on: RPMI-8226
RXF 393 = tested on: RXF 393
SF-268 = tested on: SF-268
SF-539 = tested on: SF-539
SK-MEL-28 = tested on: SK-MEL-28
SK-MEL-5 = tested on: SK-MEL-5
SN12C = tested on: SN12C
UACC-257 = tested on: UACC-257
HCT-116 = tested on: HCT-116
OVCAR-8 = tested on: OVCAR-8

Measured: GI50

CCOC(=O)NC1C2CC(=O)C(O2)C1OCc1ccccc1 (configuration not stated)
inactive: CCRF-CEM > 100 µM | COLO 205 > 100 µM | HOP-62 > 100 µM | MOLT-4 > 100 µM | NCI-H226 > 100 µM | NCI-H23 > 100 µM | NCI-H460 > 100 µM | OVCAR-3 > 100 µM | OVCAR-5 > 100 µM | RPMI-8226 > 100 µM | RXF 393 > 100 µM | SF-268 > 100 µM | SF-539 > 100 µM | SK-MEL-28 > 100 µM | SK-MEL-5 > 100 µM | SN12C > 100 µM | UACC-257 > 100 µM

COc1ccc2nc(C(=O)c3ccccc3)c(C)cc2c1
inactive: CCRF-CEM 4.2 µM | COLO 205 5.93 µM | HCT-116 4.63 µM | HOP-62 6.47 µM | MOLT-4 5.02 µM | NCI-H226 23.9 µM | NCI-H23 3.71 µM | NCI-H460 7.24 µM | OVCAR-3 10.3 µM | OVCAR-5 33.9 µM | OVCAR-8 5.31 µM | RPMI-8226 6.61 µM | RXF 393 2.7 µM | SF-268 6.76 µM | SF-539 3.05 µM | SK-MEL-28 3.91 µM | SK-MEL-5 3.15 µM | SN12C 6.84 µM | UACC-257 4.14 µM

CCOc1ccccc1NC(=O)CC(C(=O)OC)C(=O)C(=O)OC (configuration not stated)
inactive: CCRF-CEM > 100 µM | COLO 205 > 100 µM | HCT-116 > 100 µM | HOP-62 > 100 µM | MOLT-4 > 100 µM | NCI-H226 > 100 µM | NCI-H23 > 100 µM | NCI-H460 > 100 µM | OVCAR-3 > 100 µM | OVCAR-5 > 100 µM | OVCAR-8 > 100 µM | RPMI-8226 > 100 µM | RXF 393 > 100 µM | SF-268 > 100 µM | SF-539 > 100 µM | SK-MEL-28 > 100 µM | SK-MEL-5 > 100 µM | SN12C > 100 µM | UACC-257 > 100 µM

CCN(CC)CCC(=O)/C=C/c1ccc(C)cc1
inactive: CCRF-CEM 10.1 µM | COLO 205 4.72 µM | HCT-116 13.4 µM | HOP-62 25.7 µM | MOLT-4 11.7 µM | NCI-H226 17.1 µM | NCI-H23 17.1 µM | NCI-H460 15.7 µM | OVCAR-3 16.7 µM | OVCAR-5 18.6 µM | OVCAR-8 13.2 µM | RPMI-8226 3.99 µM | RXF 393 15.3 µM | SF-268 15.8 µM | SF-539 6.32 µM | SK-MEL-28 14.8 µM | SK-MEL-5 16.6 µM | SN12C 12 µM | UACC-257 13.9 µM

C(=C\c1cc(CCc2nc3ccccc3[nH]2)n[nH]1)/c1ccccc1
inactive: CCRF-CEM 89.3 µM | COLO 205 > 100 µM | HCT-116 > 100 µM | HOP-62 > 100 µM | MOLT-4 > 100 µM | NCI-H226 > 100 µM | NCI-H23 > 100 µM | NCI-H460 > 100 µM | OVCAR-3 > 100 µM | OVCAR-5 > 100 µM | OVCAR-8 > 100 µM | RPMI-8226 > 100 µM | RXF 393 > 100 µM | SF-268 > 100 µM | SF-539 > 100 µM | SK-MEL-28 > 100 µM | SK-MEL-5 > 100 µM | SN12C > 100 µM | UACC-257 > 100 µM

CC(=O)Nc1ccc(/C=c2\sc3nnc(CCC(=O)Nc4ccccc4Cl)n3c2=O)cc1
inactive: CCRF-CEM 18.3 µM | HCT-116 37.7 µM | HOP-62 54 µM | MOLT-4 19.4 µM | NCI-H226 23.4 µM | NCI-H23 46.3 µM | NCI-H460 > 10 µM | OVCAR-3 21.6 µM | OVCAR-5 > 100 µM | OVCAR-8 > 10 µM | RPMI-8226 20.8 µM | RXF 393 27.3 µM | SF-268 26.4 µM | SF-539 23.5 µM | SK-MEL-28 23 µM | SK-MEL-5 25 µM | SN12C 39.6 µM | UACC-257 > 10 µM

[O-][S+]1c2ccccc2NC(c2ccc3ccccc3c2)CC1c1ccccc1 (configuration not stated)
inactive: CCRF-CEM 17 µM | COLO 205 29.9 µM | HOP-62 40.6 µM | MOLT-4 24 µM | NCI-H226 20.6 µM | NCI-H23 16.7 µM | NCI-H460 19.5 µM | OVCAR-3 15.6 µM | OVCAR-5 42 µM | OVCAR-8 21.2 µM | RPMI-8226 21.6 µM | RXF 393 14.8 µM | SF-268 36.4 µM | SF-539 20 µM | SK-MEL-28 35.2 µM | SK-MEL-5 17.5 µM | SN12C 32.6 µM | UACC-257 32.4 µM

Nc1n2nc(-c3ccccc3)sc2n[n+]1CC(=O)c1ccccc1
inactive: CCRF-CEM 3.07 µM | COLO 205 17 µM | HOP-62 14 µM | MOLT-4 3.66 µM | NCI-H226 16.7 µM | NCI-H23 13.8 µM | NCI-H460 11.5 µM | OVCAR-3 14.7 µM | OVCAR-5 34.8 µM | OVCAR-8 15.1 µM | RPMI-8226 12.5 µM | RXF 393 10.8 µM | SF-268 24.4 µM | SF-539 6.78 µM | SK-MEL-28 25.4 µM | SK-MEL-5 7.43 µM | SN12C 27.6 µM | UACC-257 26.1 µM
